This is an account of results in ChEMBL document CHEMBL3588819, “Antiviral Limonoids Including Khayanolides from the Trang Mangrove Plant Xylocarpus moluccensis” (J Nat Prod, 2015).

This test has as its system Influenza A virus. In words: Antiviral activity against influenza A virus (A/Puerto Rico/8/34(H1N1)) infected in MDCK cells assessed as inhibition of virus-induced cytopathic effect incubated for 48 hrs by crystal violet staining based assay. Type of test: functional, organism-based. As to conditions: A/Puerto Rico/8/1934(H1N1).

Structures are written as SMILES.

Regarding `COC(=O)C[C@H]1[C@@]2(C)C[C@]3(O)[C@H](C(=O)[C@H]2OC(C)=O)C2=C4CC(=O)O[C@@H](c5ccoc5)[C@]4(C)CC[C@@H]2[C@]13C`, the IC50 came to 114 µM.
For `COC(=O)C[C@H]1[C@@]2(C)C[C@]3(O)[C@H](C(=O)[C@H]2OC(C)=O)C2=C(CC[C@]4(C)C2=CC(=O)O[C@H]4c2ccoc2)[C@]13C` the value was 122 µM; for `NC(=O)c1ncn([C@@H]2O[C@H](CO)[C@@H](O)[C@H]2O)n1` [RIBAVIRIN], 186 µM; for `COC(=O)C[C@@H]1[C@@]2(C)[C@H]3CC[C@]4(C)C(=C3[C@@]3(O)[C@@H](OC(C)=O)C(=O)[C@]1(C)C[C@@]23O)CC(=O)O[C@H]4c1ccoc1`, 77.1 µM.

In general, IC50 refers to the concentration that gives 50% inhibition.
